# Results: a melting point compilation (Tetko et al.; mined from patent text by program, amines drawn as free bases though some values may be those of a salt)
row,Compound,melting point [°C]
1,CC(=N)Nc1cccc(C(=N)N)c1,263 to 265
2,CC1(C)CC(S(=O)(=O)Cc2c(Cl)nn(C(F)F)c2C(F)(F)F)=NO1,136 to 137
3,CCNC1C=CC=C(Oc2ccc(F)cc2)C1(Cl)[N+](=O)[O-] (stereo not given),69 to 70
4,CCn1cc[nH]c(=O)c1=O,173 to 174
5,O=C(C1Cc2ccccc2N1c1ncccn1)N1CCCC1 (stereo not given),220 to 223
6,O=C(O)CNc1ccc(Cl)cc1C(=O)O,182 to 183
7,N=C(NCC1CCCO1)Nc1c([N+](=O)[O-])cnc2ccccc12 (stereo not given),210 to 212
8,COc1ccc(CN[C@@H](C(=O)O)[C@@H](O)[C@H](Cc2ccccc2)NC(=O)OC(C)(C)C)cc1,203 to 206
9,Nc1cn(C2CCN(c3c(F)c(N)c4c(=O)c(C(=O)O)cn(C5CC5)c4c3F)C2)nn1 (stereo not given),210 to 213
10,O=C(O)C1=Cc2cc(C#Cc3ccccc3)ccc2NC1C(F)(F)F (stereo not given),218 to 219
11,O=C(NC1CC1)c1ccc(F)c(F)c1,104 to 108
12,CC(=O)OC1CSC(Oc2cccc(-c3cnn(C)c3)c2)C(OC(C)=O)C1OC(C)=O (stereo not given),140
13,C#Cc1ccc(-c2ccc(Br)cc2)cc1,145 to 150
14,O[C@@H]1C=C[C@H](COC(c2ccccc2)(c2ccccc2)c2ccccc2)C1 (relative stereo),94 to 96
15,CC(=O)Nc1ccc(-c2ccoc2)cc1[N+](=O)[O-],152 to 154
16,CN(C)c1cccc(/C=C/c2c(F)cccc2F)c1,69 to 71
17,Cc1ccc(S(=O)(=O)N2[C@H](CCCNS(C)(=O)=O)CC[C@@H]2c2ccc(F)cc2)cc1 (racemic),123
18,Cn1nc(C2CCN(C#N)CC2)c2ccc(F)cc21,133 to 136
19,Cc1cc(Br)ccc1-n1c(CF)nc2ccc(N)cc2c1=O,194 to 196
20,CN(C)c1ccc(NC(=O)N(C[C@H]2CCC[C@H](CN(C(=O)Nc3ccc(N(C)C)cc3)C3CCCCC3)C2)C2CCCCC2)cc1 (relative stereo),145 to 146
21,CN1CCNS(=O)(=O)c2cc(Oc3ccccc3)ccc21,128 to 131

row,Compound,melting point [°C]
1,Fc1ccc(C2=NOC(CN=C=S)C2)cc1 (stereo not given),59 to 61
2,N#CC1(c2ccc(F)cc2)CCC(N2CCC3(CC2)C(=O)NCN3c2ccccc2)CC1 (stereo not given),236
3,CC(C)N1CC(CO)CC2c3cccc4[nH]cc(c34)CC21 (stereo not given),192 to 194
4,O=C(C1=COc2cc(O)ccc2O1)N1CCN(C(c2ccc(F)cc2)c2ccc(F)cc2)CC1,163
5,O=C(O)CCCCCSC1c2ccccc2COc2ccc(OCc3ccc4ccc(Cl)cc4n3)cc21 (stereo not given),160 to 166
6,CN(C)/C=C/c1cc(OC2CCN(C(=O)OC(C)(C)C)CC2)ccc1C#N,135 to 137
7,CCCCCCC(C)(C)c1cc(OC)c(C2=C[C@@H]3CC[C@@]2(CO)C3(C)C)c(OC)c1,49 to 51
8,OP(O)C1(NC(c2ccccc2)c2ccccc2)CCCC1,204 to 205
9,O=C1c2ccccc2C(O)N1c1cccc(C(F)(F)F)c1 (stereo not given),202
10,Nc1ccc(C#CCCN2CCC(O)(c3ccc(Cl)cc3)CC2)cc1,134 to 136
11,N=C(Nc1ccc(CCCC(=O)Nc2ccccc2)cc1)c1cccs1,229 to 231
12,CCS(=O)(=O)N1C[C@H](C)N(C(=O)[C@@](C)(O)C(F)(F)F)C[C@H]1C,142 to 144
13,N#Cc1nn(-c2c(Cl)cc(C(F)(F)F)cc2Cl)c(Cl)c1C#CBr,153
14,COc1ccc(C2CCC(=O)CC2=O)cc1 (stereo not given),150 to 151
15,O=C1CC2(CCCC2)c2ccc(O)cc21,145
16,O=[N+]([O-])c1cccc(CN(CCO)CCO)c1,71 to 72
17,CCCCCCCCC#CCC#CCC#CCS(=O)CC(=O)NCC (stereo not given),77
18,CC1=C(NC=O)C(C)C(C)(C(C)C)C2=C1CC(C)(CI)O2 (stereo not given),145 to 147
19,CC(C)C(=O)N(O)C(c1ccccc1)c1cc(C(C)(C)C)c(O)c(C(C)(C)C)c1 (stereo not given),179 to 180
20,NC(=O)NC(=O)c1ccccn1,183 to 185
21,Nc1cc(N2CCCCC2)c(F)cc1[N+](=O)[O-],112 to 113

# More lines, now with the values ahead:
row,melting point [°C],Compound
1,205,CCCCn1ccc(-c2ccc(Oc3cc(C)nc(C)c3)c(F)c2)c(C#N)c1=O
2,129 to 131,CCOC(=O)CCc1cc(OCC(=O)O)nn1Cc1ccc(Cl)cc1Cl
3,185,COc1ccc(S(=O)(=O)Nc2nc(-c3cccc([N+](=O)[O-])c3)cs2)cc1OC
4,168,Cc1cccc(CC(=O)c2ccnc(-c3ccc(OCC(N)=O)cc3)c2)n1
5,312 to 318,CN(C)c1ccc(/C=C\c2ccc3c(=O)[nH]ncc3c2)cc1
6,109 to 111,OCCOc1cccc2ncccc12
7,188 to 190,O=Cc1cc2cc(Cl)ccc2nc1Cl
8,109 to 110,Cc1oc(-c2ccco2)nc1COc1ccc(COc2ncccc2C=O)cc1
9,199 to 201,CNC(=O)Cn1c(-c2cccc(Br)c2)nc2cccnc21
10,169 to 170,CCN1c2ncc(COc3ccncc3)cc2C(=O)N(C)c2ccc(Cl)nc21
11,66 to 67,CC(CC(=O)O)c1ccc(-c2ccccc2)c(Cl)c1 (stereo not given)
12,300,NS(=O)(=O)c1ccc(Cl)c(NC(=O)c2cnn3c(C(F)(F)F)cc(-c4ccc(C(F)(F)F)cc4)nc23)c1
13,> 300,O=C1c2ccccc2C(=O)c2sc(-c3ccc([N+](=O)[O-])o3)nc21
14,215,CC(C(=O)Nc1ccccc1)n1nc(O)c2[nH]c3cc(Cl)ccc3c(=O)c2c1=O (stereo not given)
15,158 to 159,OC1CSC(Oc2cc(-c3ccc(F)nc3)cnc2F)C(O)C1O (stereo not given)
16,108 to 109,Nc1ccccc1/C=C/c1ncon1
17,118 to 119,CC(=O)C(C)(C)N1COC(C)=C(c2ccccc2)C1=O
18,132 to 136,COC(=O)c1cc(CS(=O)c2ccccc2)cnc1C1=NC(C)(C(C)C)C(=O)N1 (stereo not given)
19,110,COc1ccc(Cl)c(Oc2c(C)nc(-c3ncccn3)nc2Cl)c1
20,112 to 114,CCN(c1ccc(C#N)cc1Cl)S(=O)(=O)c1ccc(C)cc1

row,melting point [°C],Compound
1,155 to 157,O=C(O)c1ncc(OCc2ccccc2)c(OCc2ccccc2)c1Br
2,> 260,CC(C)(C)OC(=O)c1ccc(C#Cc2cnc3nc(N)nc(O)c3c2)cc1
3,255 to 257,CC1=C(c2ccccc2)n2nc(C)c3c(=O)[nH]c(=S)n(c32)C1
4,179 to 180,COc1ccc(-c2ccc(C(=O)Nc3cccc(CC(=O)O)c3)o2)cc1
5,128 to 129,COC(=O)c1ccc2[nH]c(C(=O)OCc3ccccc3)cc2c1
6,114 to 116,O=c1oc(-c2ccccc2)cc(O)c1SCCCc1ccccc1
7,230,Cc1cc(-c2ccc(Cl)c(Cl)c2)nc(-n2cnc(-c3ncc(S(N)(=O)=O)s3)c2)n1
8,186 to 187,CCOC(=O)C1=NN(C(=O)c2ccccc2I)C(C(=O)OCC)=NN1C(=O)c1ccccc1I
9,82 to 84,CCSC(=S)N1C(CO)Cc2c([nH]c3ccccc23)C1CC (stereo not given)
10,150,Cc1ccc2c(c1)c(=O)oc(=O)n2Cc1ccccc1
11,236 to 238,CCc1cccc(C)c1CNc1cc(C(=O)NC)nc2c1nc(C)n2C
12,132,CCS(=O)(=O)n1cc(C(=O)c2ccn3c2CSC3c2cccnc2)c2ccc(-c3ccc(F)cc3)cc21 (stereo not given)
13,122 to 123,Cc1c(Br)c2cnnc(OCc3ccccc3)c2n1Cc1ccccc1
14,105 to 108,CCNC(=O)c1sc(Cl)cc1[Si](C)(C)C
15,145 to 148,COc1ccc2c(c1)c(Cc1cc(=O)n(C3CCCCCC3)[nH]1)c(C)n2C(=O)c1ccc(Cl)cc1
16,186 to 190,N#Cc1c[nH]c2ccc([N+](=O)[O-])cc12
17,168 to 170,CO/C=C(/C(=O)OC)c1ccccc1Oc1cc(O)ncn1
18,175 to 177,Cc1nc(S(=O)(=O)CC(N)=O)nc(C)c1Br
19,57 to 58,Cc1cc(CCCCCOc2c(Cl)cc(-c3nc(C)c(C)s3)cc2Cl)on1
20,158 to 159,NS(=O)(=O)c1ccc(-c2oc(Cl)nc2-c2ccccc2)cc1

row,melting point [°C],Compound
1,236,CC(C)n1cc(-c2nc(C(N)=O)c(N)nc2-c2ccc(F)cc2)ccc1=O
2,76,C#CCc1c(C)nc2c(OCc3c(C)cccc3N(C)C(C)=O)cccn12
3,134 to 135,COc1cc(Br)nc(C(=O)O)c1OCc1ccccc1
4,> 250,CCC1(O)CC(=O)OCc2c1cc1n(c2=O)Cc2c-1nc1ccccc1c2CC[Si](C)(C)C (stereo not given)
5,123 to 125,CCC(C)CC1OC(CC(=O)Nc2ccc(F)c(CCC(=O)O)c2)C(=O)N(CC(C)(C)CO)c2ccc(Cl)cc21 (stereo not given)
6,180 to 182,COc1ccn2nc(-c3ccccc3)c(-c3ccc(=O)n(C(C)C)n3)c2c1
7,134 to 135,Cc1cccc2c1nc(-c1c(F)cccc1F)n2S(=O)(=O)c1ccccc1
8,73 to 79,COc1cc(-c2cccs2)ccc1C(=O)C=Cc1ccc(F)c(F)c1
9,124 to 125,O=C(CCCCCl)c1ccc2c(c1)Cc1cc(C(=O)CCCCCl)ccc1-2
10,152 to 153,Cc1c(NC(=O)c2ccc(-c3ccc(F)cc3)cc2)ccc2cc(CN3CCN(C)CC3)cnc12
11,254 to 256,Cn1cc(C2=C(c3cn(CCCCl)c4ccccc34)C(=O)NC2=O)c2ccccc21
12,154 to 155,COc1ccc(CNc2cc(C(O)CNC(C)(C)CCn3cnc4ccccc43)ccc2O)cc1 (stereo not given)
13,121 to 123,Cc1cc(-c2cccc(NC(=O)C3CCC3)c2)n2ncc(C(=O)c3cccs3)c2n1
14,61.5 to 64.5,CCOC(=O)C1=C(C)N=C(OC)N(C(=O)OCC)C1c1cccc([N+](=O)[O-])c1 (stereo not given)
15,71.5,CCOC(=O)c1cc(C#N)cc(C(F)(F)F)n1
16,168 to 170,Cn1c(=O)c(Oc2ccc(F)cc2F)cc2cnc(Cl)cc21
17,169 to 171,COCN1C(=O)OC(C)(C)c2cc(-c3cc(F)cc(C#N)c3)ccc21
18,182,O=C(COc1cc(-c2ccccc2)nc2ccc(Cl)cc12)N1CCOCC1
